Measurements as given in patent US20210386367A1, “DEVICES AND SYSTEMS FOR GASTROINTESTINAL MICROBIOME DETECTION AND MANIPULATION” (Progenity, Inc., priority 2018, published 2021).
In brackets after ≈: the same amount, converted by molar mass. Several values for one entry are separate records, joined by “and”; a condition that tells them apart may be missing. Equal entries are not always repeated. Where two headings read alike, the source gives them in different places.

Experiments:
Assay type in all cases: cell-based
[1] = tested on: Enterococcus faecalis clinical isolates; assay: MIC distribution against clinical isolates
Source text: (§1) As used herein, “minimum inhibitory concentration” or “MIC” refers to the lowest concentration of an antimicrobial agent, for example, an antimicrobial agent as described herein, required to inhibit the growth of an organism.
(§2) Many susceptibility testing methods are known in the art and can be used as described herein (see, e.g., Jorgensen and Ferraro (2009) Clinical Infectious Diseases 49:1749-1755; and Maurer et al. (2017) Infectious Disease Reports 9:6839; the entire contents of each of the foregoing are incorporated herein by reference). For example, antimicrobial susceptibility can be determined using conventional culture based methods such as the broth or agar dilution test. In these dilution tests, the bacterial isolate of interest is inoculated onto different media that include serial dilutions of an antimicrobial agent, and incubated under appropriate conditions (e.g., overnight at 37° C.) to allow for growth to occur. Following the incubation period, the media is examined to determine bacterial growth. The lowest concentration of antibiotic that prevents growth represents the minimal inhibitory concentration (MIC). Broth dilution tests can be miniaturized and mechanized allowing for reproducibility and high throughput.

[2] = tested on: Staphylococcus aureus clinical isolates; assay: MIC distribution against clinical isolates
Source text: as §1, §2

Streptococcus pyogenes = assay: Broth microdilution MIC, 19 clinical isolates
Procedure: Minimal inhibitory concentration (MIC) values were determined by broth microdilution or agar dilution in accordance with guidelines from the Clinical and Laboratory Standards Institute (CLSI; (1) “Methods for Dilution Antimicrobial Susceptibility Tests for Bacteria That Grow Aerobically; Approved Standard; 11th ed.” CLSI standard M07-A11, 2018; (2) “Performance Standards for Antimicrobial Susceptibility Testing; Twenty-Eighth Informational Supplement,” CLSI document M100-S28, 2018; and (3) “Methods for Antimicrobial Susceptibility Testing of Anaerobic Bacteria; Approved Standard—Eighth Edition,” CLSI document M11-A8, 2012).
Tested aerobically by broth microdilution: • Escherichia coli, n=50 • Klebsiella spp., n=50 • Pseudomonas aeruginosa, n=50 • Streptococcus spp., n=50 • Staphylococcus aureus, n=50 • Enterococcus faecalis, n=50 • Enterobacter aerogenes, n=50 • Proteus mirabilis, n=50
Broth microdilution testing of aerobic bacteria was conducted in cation-adjusted Mueller Hinton broth (MHBII). For testing streptococci, lysed horse blood (LHB) was added to MHBII broth at a final concentration of 3%. Where LHB was used, it was added after filtering.
Broth microdilution susceptibility testing in 96-well microplates was conducted in accordance with CLSI methods (1) and (2). Automated liquid handlers were used to conduct serial dilutions and liquid transfers, including the Multidrop 384 (Labsystems, Helsinki, Finland), Biomek 2000, and the Biomek FX (Beckman Coulter, Fullerton, Calif.). All wells in columns 2 through 12 of a standard 96-well microdilution plate (Costar 3795) were filled with 150 μL of the appropriate diluent. Then, 300 μL of the test agents were added to the wells of column 1 of the plates at 100× the highest final concentration to be tested. Serial two-fold dilutions were made across the rows through column 11 using the Biomek 2000. The wells of column 12 contained no drug and served as the growth control wells. This plate served as the “mother plate” from which MIC assay plates or “daughter plates” were made.
The daughter plates were loaded with 190 μL per well of the appropriate medium using the Multidrop 384. The daughter plates were created using the Biomek FX which transferred 2 μL of drug solution from each well of a mother plate to each corresponding well of the daughter plate in a single step. A standardized inoculum of each test organism was prepared per CLSI methods (1) to equal a 0.5 McFarland standard, followed by a dilution of 1:20 for aerobes and 1:10 for anaerobes. The plates were then inoculated with 10 μL of the diluted inoculum using the Biomek 2000 from low to high drug concentration, resulting in a final concentration of approximately 5×10^5 CFU/mL per well. An un-inoculated plate was incubated in parallel for each medium for the purpose of assessing solubility of the drug in the test media.
Inoculated plates were stacked 3 or 4 high, covered with a sterile lid on the top plate, placed into boxes with CO2 planchets (streptococci) or plastic bags (all other isolates). Plates were incubated at 35° C. for 16-24 hr in ambient air for aerobes or for 42-48 hr in the anaerobic environment of the Bactron II anaerobe chamber (Sheldon Manufacturing Co.; Cornelius, Oreg.). Following incubation, the microplates were removed from the incubator and viewed from the bottom using a plate viewer. The MIC values were read and recorded as the lowest concentration of drug that inhibited visible growth of the organism as per CLSI methods (1) and (2).

[3] = MIC 32 μg/mL, 50 S. aureus isolates
[4] = MIC >32 μg/mL, 50 E. faecalis isolates

## CO[C@H]1/C=C/O[C@@]2(C)Oc3c(C)c(O)c4c(O)c(c5c(nc6cc(C)ccn65)c4c3C2=O)NC(=O)/C(C)=C\C=C\[C@H](C)[C@H](O)[C@@H](C)[C@@H](O)[C@@H](C)[C@H](OC(C)=O)[C@@H]1C [rifaximin]
[1]; MIC 0.5 μg/mL, 50 E. faecalis isolates
  Number of test isolates at MIC: 5
[2]; MIC 0.008 μg/mL, 50 S. aureus isolates
  Cumulative percentage of isolates inhibited at MIC: 8.0%
[2]; [3]
  Cumulative percentage of isolates inhibited at MIC: 100.0%
  Number of test isolates at MIC: 1
[2]; listed as RFX
  Cumulative percentage of isolates inhibited at MIC: 70.0% and 78.0% and 94.0% and 98.0%
Streptococcus pyogenes
  MIC50: 0.06 µg/mL (≈ 0.0763 µM)
  MIC90: 0.25 µg/mL (≈ 0.318 µM)
  MIC range: 0.015 to 0.25 µg/mL
  Mode: 0.06 µg/mL

## CN[C@H](CC(C)C)C(=O)N[C@H]1C(=O)N[C@@H](CC(N)=O)C(=O)N[C@H]2C(=O)N[C@H]3C(=O)N[C@H](C(=O)N[C@H](C(=O)O)c4cc(O)cc(O)c4-c4cc3ccc4O)[C@H](O)c3ccc(c(Cl)c3)Oc3cc2cc(c3O[C@@H]2O[C@H](CO)[C@@H](O)[C@H](O)[C@H]2O[C@H]2C[C@](C)(N)[C@H](O)[C@H](C)O2)Oc2ccc(cc2Cl)[C@H]1O [vancomycin, Vancomycin]
[1]; [4]
  Cumulative percentage of isolates inhibited at MIC: 100.0%
  Number of test isolates at MIC: 13
[1]; listed as VAN
  Cumulative percentage of isolates inhibited at MIC: 48.0% and 64.0% and 72.0% and 74.0%
[2]; MIC 1 μg/mL, 50 S. aureus isolates
  Cumulative percentage of isolates inhibited at MIC: 100.0%
Streptococcus pyogenes
  % S: 100%
  MIC range: 0.25 to 0.5 µg/mL
  Mode: 0.25 µg/mL
Streptococcus pyogenes; Streptococcus pyogenes
  MIC50: 0.25 µg/mL (≈ 0.173 µM)
  MIC90: 0.5 µg/mL (≈ 0.345 µM)

## Penicillin
Streptococcus pyogenes
  % S: 100%
  MIC50: <0.004 µg/mL
  MIC90: 0.008 µg/mL
  MIC range: ≤0.004-0.03^ μg/mL
  Mode: <0.004 µg/mL
